Measurements taken from patent publication US20180353539A1, “METAL COMPLEXES AS PHARMACEUTICALS FOR TREATMENT AND PREVENTION OF CANCER AND INFLAMMATORY DISEASES” (UNIVERSITY OF SOUTHERN CALIFORNIA, priority 2017, published 2018).

What was measured:
[1] = MTT assays; salicylic acid alone
[2] = tested on: stage IV breast cancer metastasized to lungs and brain; assay: Case Study 3; type: in vivo, human
Procedure: A patient was diagnosed with stage IV breast cancer and invasive ductal carcinoma metastasized to multiple organs (lungs and brain). […] They then took 3 dosages of 50 mg of zinc iodide per day orally. A chest ray was taken 61 days after the start of treatment, as shown the lung metastases decreased by more than 60%.

cholangiocarcinoma = assay: Case Study 9; type: in vivo, human; parameters: total bilirubin: unit not given here
From the text: A person presented with jaundice, abdominal discomfort and lack of appetite. They could not eat or drink properly. Over the last 3 months, their weight decreased by 8 kg. […] There was also a hypodense lesion with an intraductal growth type, sized at 3.6 cm×4.1 cm, on their liver. […] They were diagnosed with cholangiocarcinoma.

[3] = tested on: pancreatic adenocarcinoma; assay: Case Study 16; type: in vivo, human
Procedure: A person presented symptoms of abdominal pain, nausea, and vomiting. […] They also had multiple metastases on their liver. They were diagnosed with pancreatic adenocarcinoma. Their CA 19-9 (levels of tumor-associated antigens in the blood) was 365 U/mL. The patient was treated through infusion with 200 mg of zinc Iodide mixing with 1000 mL of 0.9% sodium chloride solution and 10 mL of DMSO. The symptoms presented improved after 2 days of treatment. […] After 35 days on the treatment, an ultrasound was taken of the pancreas. The tumor had decreased to 4.3 cm×5.2 cm. Their CA 19-9 levels decreased to 168 U/mL. After 40 treatments, the patient began treatment orally; they were given 50 mg zinc iodide capsules 3 times/day. After 155 days on the oral treatment, a CT of their pancreas was taken. The tumor decreased to 2.4 cm×3.6 cm. The liver metastasis decreased by 50% also.

lung cancer = assay: Case Study 14; type: in vivo, human
Procedure: A person presented with cough and chest pains that persisted over 6 months. In that time, they also lost 6 kg of weight. In the last 20 days, the patient developed hemoptysis, which lead them to hospitalization. […] They also had total opacification of the right lung. The patient was diagnosed with lung cancer and sent home. The patient was treated with 3-50 mg Zinc Iodide capsules/day for 120 days. After 5 days, their breathing capabilities and cough improved.

Case Study 15 = type: in vivo, human
Procedure: Due to this, they were hospitalized 4-5 times/year. For 3 years, they used a corticosteroid inhaler, bronchodilator, antibiotics and COPD medication to no avail. They were also taking hypertension medication as a result of the COPD treatment. Their blood pressure was 160/96 and Forced Expiratory Volume (FEV1) at 58%. The patient was treated with 3-50 mg Zn Iodide capsules/day. […] […] (FEV1) was 67% and their blood pressure decreased to 130/90. […] Even though they were not taking COPD medication, there were no signs of infections either.

[4] = tested on: adenocarcinoma of the pancreatic head; assay: Case Study 6; type: in vivo, human; parameters: total bilirubin: unit not given here
Procedure: A person had symptoms of weight loss and abdominal pain over a 2-month period. […] At the head, there was a 38-mm×42 mm mass detected. In addition, their intrahepatic billiard tree was dilated. The patient was given 125 mg of Zinc Iodide mixing with 1000 ml of sodium chloride 0.9% and 10 ml of DMSO through infusion daily for 20 days. […] They gained 4 kg of body weight. […] The patient is symptom free.

[5] = tested on: prostate cancer with diffuse metastases; assay: Case Study 7; type: in vivo, human
Procedure: A patient had prostate cancer with diffuse metastases, along with severe leg pain. They underwent hormonal therapy, until they developed severe bone pain. They took voltaren injections and solumedrol infusions to alleviate the pain. […] The patient was weak and lost 5 kg of weight in a month. They began the treatment with 125 mg of Zinc Iodide mixing with 1000 ml of sodium chloride 0.9% and 10 ml of DMSO through infusion. […] Their RBC, hemoglobin and serum calcium levels all normalized; and their PSA decrease dramatically to 40 ng/mL. Their quality of life improved greatly, and they had no symptoms.

[6] = tested on: esophageal cancer with multiple lymphatic metastases; assay: Case Study 10; type: in vivo, human
Procedure: A person was diagnosed with esophageal cancer with multiple lymphatic metastases. Their blood chemistry profile was normal, but their CEA levels were 6.7 ng/mL. The patient presented symptoms of extreme fatigue, difficult swallowing, chest pains, fever and weight loss. An endoscopy reveled a 4.2 cm×3.7 cm lesion on their esophagus. The tumor had poorly differentiated adenocarcinoma. […] The patient underwent treatments of 200 mg of zinc iodide mixing with 1000 mL of 0.9% sodium chloride solution and in 10 mL of DMSO, 6 times/week for 4 weeks. […] They also stopped steroid treatment. […] After 24 days of the infusion treatment, they began taking 50 mg Zinc Iodide capsules, 3 times/day for 90 days.

liver cancer = assay: Case Study 17; type: in vivo, human
Procedure: A person with chronic hepatitis C presented symptoms of abdominal pain. […] They had also been diagnosed with type 2 diabetes three years prior. […] Within 5 days their abdominal pain disappeared, and […] general health improved. […] Their cancer related markers included: AFP: 678 IU/L, GOP: 146 IU/L, GPT: 126 IU/L, and GGT: 124 IU/L. The patient's blood glucose level was 6.7 mmol/L. For the next 90 days, the patient took 50 mg of zinc iodide orally in capsule form 3 times/day. […] Their cancer related markers included: AFP: 107 IU/L, GOP: 195 IU/L, GPT: 69 IU/L, and GGT: 115 IU/L. The patient's blood glucose level was 7.4 mmol/L.

[7] = 61 days after the start of treatment
[8] = 105 days after the beginning of treatment
[9] = after further 90 days of oral treatment

In the case of `O=C(O)c1ccccc1O` [salicylic acid], the cellular activity [1] is reported as “no effect on cellular activity”.

With `[I][Zn][I]` [Zinc Iodide, zinc iodide] the “decrease of lung metastases” value [2, 7] was “more than 60%”, the “reduction of brain metastases (MRI)” value [2, 7] was 50% and the “symptoms of coughing, headache and nausea” value ([2]; over 12 days of infusion) was “gradually improved”. The GGT levels (cholangiocarcinoma; 105 days) was 784 U/L, the GOT levels (cholangiocarcinoma; 105 days) was 67 U/L and the GPT levels (cholangiocarcinoma; 105 days) was 54 U/L. For the same compound, the total bilirubin (cholangiocarcinoma; 105 days) was 28, the symptoms (cholangiocarcinoma; [8]) was “no longer experienced symptoms” and the weight gained (cholangiocarcinoma; [8]) was 4 kg. The GPT (cholangiocarcinoma; after 10 days, before treatment 127) was 97 U/L, the total bilirubin (cholangiocarcinoma; after 10 days, before treatment 139) was 75 and the GOT (cholangiocarcinoma; after 10 days, before treatment 163) was 121 U/L. For the same compound, the GGT (cholangiocarcinoma; after 10 days, before treatment 1410) was 1267 U/L, the GGT (cholangiocarcinoma; at 21 days) was 978 U/L and the GOT (cholangiocarcinoma; at 21 days) was 85 U/L. The GPT (cholangiocarcinoma; at 21 days) was 193 U/L, the jaundice (cholangiocarcinoma; at 21 days) was “improved” and the total bilirubin (cholangiocarcinoma; at 21 days) was 56. For the same compound, the digestive health (cholangiocarcinoma; within 5 days) was “improved significantly”, the symptoms ([3]; after 2 days of treatment) was “improved” and the “CA 19-9 levels” value ([3]; after 35 days, before treatment 365) was 168 U/mL. The “decrease of liver metastasis” value ([3]; after 155 days on the oral treatment) was 50%, the symptoms ([3]; by the 5th day) was “almost symptom-free” and the “breathing capabilities and cough” value (lung cancer; after 5 days) was “improved”. For the same compound, the “clearance of opacification (CT)” value (lung cancer; after 121 days) was 80%, the blood in sputum (lung cancer; by 12 days) was “no longer had blood in their sputum” and the “Forced Expiratory Volume (FEV1)” value (Case Study 15; 92 days after first treatment) was 75%. For the same compound, the blood pressure (Case Study 15; 92 days after first treatment) was 125/90, the shortness of breath (Case Study 15; 92 days after first treatment) was “no longer had shortness of breath” and the “need for fast acting bronchodilator inhalers” value (Case Study 15; after 3 days) was “no longer needed fast acting bronchodilator inhalers”. The COPD related symptoms (Case Study 15; at 30 days) was “remarkable improvement”, the “Forced Expiratory Volume (FEV1)” value (Case Study 15; at 30 days, before treatment 58%) was 67% and the blood pressure (Case Study 15; at 30 days, before treatment 160/96) was 130/90. For the same compound, the COPD related episodes (Case Study 15; in the following 2 months) was “did not have any COPD related episodes”, the “need for corticosteroid inhalers” value (Case Study 15; within 10 days) was “no longer needed corticosteroid inhalers” and the “CA 19-9 level” value ([4]; 63rd day) was 46 U/mL. For the same compound, the liver metastases ([4]; 63rd day) was “no indications of liver metastases”, the symptoms ([4]; after treatment) was “symptom free” and the total bilirubin ([4]; at 10 days, before treatment 78) was 56. The AST ([4]; at 10 days, before treatment 113) was 73 U/L, the GGT ([4]; at 10 days, before treatment 149) was 149 U/L and the ALT ([4]; at 10 days, before treatment 187) was 73 U/L. The “CA 19-9” value ([4]; at 10 days, before treatment 385) was 184 U/L, the body weight gained ([4]; during oral treatment) was 4 kg and the pain ([4]; within 7 days) was “completely disappeared”. The “RBC, hemoglobin and serum calcium levels” value ([5]; after oral treatment) was “normalized”, the symptoms ([5]; after oral treatment) was “no symptoms” and the “ultrasound and x-ray scans” value ([5]; after oral treatment) was “no abnormalities”. The PSA ([5]; after oral treatment, before treatment 260) was 40 ng/mL, the pain medication ([5]; by day 20) was “stopped all pain medication” and the RBC count ([5]; day 20, before treatment 3.2) was 4.2 million cells/uL. For the same compound, the serum calcium levels ([5]; day 20, before treatment 3.5) was 2.5 mmol/L, the hemoglobin ([5]; day 20, before treatment 9) was 10.7 g/dL and the pain improvement ([5]; within 7 days) was 70%. The lymph nodes ([6]; 105th day) was “clear of metastases”, the fever and pain ([6]; after 3 days) was “no symptoms of fever or pain” and the general health ([6]; after 3 days) was “improved”. The eating and drinking ([6]; within 3 weeks) was “could eat and drink normally”, the GOT (liver cancer; after 10 days, GOT before treatment 326) was 224 IU/L and the blood glucose level (liver cancer; after 10 days, before treatment 8.5) was 7.6 mmol/L. It also gave a GGT (liver cancer; after 10 days, before treatment 251) of 93 IU/L, a GPT (liver cancer; after 10 days, before treatment 293) of 187 IU/L and an AFP (liver cancer; after 10 days, before treatment 1450) of 1209 IU/L. It also gave an AFP (liver cancer; after 21 days) of 678 IU/L, a GGT (liver cancer; after 21 days) of 124 IU/L and a GOT (liver cancer; after 21 days) of 146 IU/L. It also gave a GPT (liver cancer; after 21 days) of 126 IU/L, a blood glucose level (liver cancer; after 21 days) of 6.7 mmol/L and an AFP (liver cancer; [9]) of 107 IU/L. It also gave a GGT (liver cancer; [9]) of 115 IU/L, a GOT (liver cancer; [9]) of 195 IU/L and a GPT (liver cancer; [9]) of 69 IU/L. For the same compound, the blood glucose level (liver cancer; [9]) was 7.4 mmol/L and the abdominal pain (liver cancer; within 5 days) was “disappeared”.
